Series [1] in a line: Plasma concentrations (PK) in NMRI mice after SC administration. The series is classed as in vivo. How it is done: (§1) NMRI female mice (10–12 weeks old, 29–32 g, n = 64) were obtained from ENVIGO (The Netherlands) and housed prior to treatment under standard conditions (acclimatization period of 1 week, 21–23 °C, 12-h light/dark cycle, relative humidity 45%–65%) with unlimited access to food (R70 diet from Lantmännen) and water. The experimental procedures were performed in accordance with the guidelines of the European Community and local laws and policies (Directive 2010/63/EU), and all of the procedures were approved by Food and Veterinary Service, Riga, Latvia. Studies involving animals are reported in accordance with the ARRIVE guidelines. Animals were weighed on the day of the treatment (before treatment) to calculate the required amount of compound for the corresponding dose. For PK and excretion studies the mice were dosed subcutaneously (SC) via a bolus injection (injection volume 10 mL/kg). Four consecutive doses were administrated twice a day at 9:00 AM and 15:00 PM over the course of two days.
Blood samples were collected in tubes containing heparin. Blood was sampled from tail vein 15, 30, and 45 min after the first and last administrations of the compounds. Tubes were centrifuged at +4 °C 10,000× g for 3 min. Plasma samples were collected and stored at −20 °C until analysis.
(§2) Plasma and urine sample analyses were performed using the quantitative UPLC/MS/MS method. Calibration standards and quality control samples for plasma analysis were prepared by spiking blank mouse plasma (CD-1, anticoagulant Na Heparin, Innovative Research, USA) with a stock solution of analyte to achieve a nominal concentration ranging from 0.01 to 50 μg/mL for NAB739 and PMB. Calibration standards and quality control samples for urine analysis were prepared by spiking blank mouse urine (mouse CD-1 urine, Sera Laboratories International Ltd., UK) with a stock solution of analytes to achieve a nominal concentration from 0.04 to 30 μg/mL for NAB739 and PMB.
(§3) A sample volume of 20 μL (calibration standards, quality controls or analytical samples in plasma or urine) was transferred into the plastic tube and mixed with 100 μL of 1% formic acid solution in acetonitrile/methanol (3:1, v/v) mixture to precipitate proteins. The tubes were vortex- mixed and centrifuged at 10,000 rpm for 10 min. Then, 100 μL of supernatant was diluted with 400 μL of water and subjected to UPLC/MS analysis as follows:
(§4) UPLC system Acquity H-class (Waters) connected with triple quadrupole mass spectrometer Xevo TQ-S (Waters). UPLC conditions: Column—Acquity BEH C18 (2.1 × 50 mm, 1.7 µm); Mobile phase—A: 0.1% Formic acid aqueous solution, B: Acetonitrile; Gradient: Initial—90%A, 2.5 min—5% A, 4.0 min—5% A, 4.5 min—90% A, 6 min—90% A; Flow—0.3 mL/min; Column temperature—40 °C; Injection volume—1 μL (NAB739) or 5 μL (PMB). MS conditions: Ionization—ESI positive mode; Capillary voltage—1.0 kV; ESI source temperature—120 °C; Desolvation gas (N2) flow—800 L/h; Desolvation temperature—600 °C.

The nature of series [2]: Urinary elimination in NMRI mice after SC administration (pooled 0–3 h urine). The series is classed as in vivo. How it is done: as §1
For PK study, before the administration of the compound, mice voiding was stimulated. Then compound was administrated SC. Mice were put in separate cages with LabSand (USA) and urine was collected during the next 3 h. At the end of each 1-h period voiding was stimulated by gentle massage of the belly. Urine samples from each mouse were pooled in one tube. Urine volume was determined by weighing of the pooled urine sample.
as §2, §3, §4

A short description of series [3]: Observation of adverse effects during administration in mice. The series is classed as in vivo, NMRI mice. To be noted: SC, doses 0.25, 0.5, 1, 2 and 4 mg/kg, single and four-times-repeated. How it is done: as §1
The subject of a further series is E. coli. To be noted: murine E. coli pyelonephritis, cited from earlier work; for Half maximal effective dose (ED50) in kidneys: bacterial burden in kidneys.
Details of series [4]: method as in PMID 18840079. To be noted: patients; cited from earlier work.
The conditions of series [5]: cynomolgus monkey, in vivo; cited from earlier work.
For series [6] the following is noted: cynomolgus monkey, in vivo; cited from earlier work. The source holds these as a separate data set.

Positions of bridges follow the written chain, without caps; N, C: chain ends. Non-standard residues stand in square brackets, D forms with d. Residues, ends and D or L forms follow the SMILES beside them. *: point of attachment. Octanoyl = CCCCCCCC(=O)*; Dab = NCC[C@H](N)C(=O)O

polymyxin B [PMB, reference compound]: the “Plasma concentrations after the first versus the last administration” value in series [1] (SC, four doses) is “similar”. Moreover, in series [1] (plasma, SC, all doses 0.25–4 mg/kg), the “Time at which Cmax was observed after administration” value was 30 min. Further, in series [1] (plasma, first SC administration, doses 0.25–4 mg/kg), the “Linearity of Cmax and dose–response relationship, correlation coefficient” value is given as 0.975. In addition, the “Detection in urine samples” value in series [2] (SC dose of 4 mg/kg, pooled 0–3 h urine) is given as “not detected”. Further, the Detection in urine result in series [2] (after the fourth SC dose at 4 mg/kg, detection limit 0.6 µg/mL) is listed as “not found”. Also, the “Adverse effects during administration” value in series [3] is listed as “no adverse effects were observed”. The “Half maximal effective dose (ED50) in kidneys” value in the series with E. coli is given as 2.1 mg/kg. For the same compound, the “Part of dose excreted in urine” value in series [4] is on record as “less than 1%”.
In the case of `CCCCCCCC(=O)N[C@H](C(=O)N[C@H](CO)C(=O)N[C@H]1CCNC(=O)[C@H]([C@@H](C)O)NC(=O)[C@H](CCN)NC(=O)[C@H](CCN)NC(=O)[C@H](CC(C)C)NC(=O)[C@@H](Cc2ccccc2)NC(=O)[C@H](CCN)NC1=O)[C@@H](C)O` [NAB739] (Octanoyl-T[dS][Dab][Dab][dF]L[Dab][Dab]T; lactam 3-C; N-terminus assumed), the Plasma concentration entry in series [1] (female, NMRI, mouse, in vivo, sc, 0.5 mg/kg) is “exceeded 1 µg/mL”. Further, the “Linearity of Cmax and dose–response relationship, correlation coefficient” value in series [1] (mouse, in vivo, sc) was 0.9987. For the same compound, the Urinary concentration result in series [2] (female, NMRI, mouse, in vivo, sc, 4 mg/kg) was “above 35 µg/mL”. In series [2] (mouse, in vivo), the “Relative elimination by urine higher after the last dose than after the first dose, average” value was 26% and the “Urine concentration higher after the last dose compared to the first dose, average” value is recorded as 27%. For the same compound, the “Detection in urine samples” value in series [2] (mouse, in vivo, sc, 4 mg/kg) is “found in all pooled (0–3 h) urine samples”. Besides, in the series on E. coli, the “Half maximal effective dose (ED50) in kidneys” value was 0.24 mg/kg; the “Fold lower dose than PMB reducing bacterial burden in kidney, urine and bladder” value was “approximately 10 fold”. Besides, the “Nephrotoxicity compared to PMB” value in series [5] is on record as “less nephrotoxic”. The Excretion in urine result in series [6] is “excreted in the cynomolgus urine at a very significant extent”.

The values are drawn from publication PMC7235871, “Excretion of the Polymyxin Derivative NAB739 in Murine Urine” (Antibiotics, 2020).
